Results on six compounds are retold here after patent publication US20240209028A1, “CNP COMPOUNDS” (priority 2022, published 2024).

The nature of the data set: PK of CNP compounds after i.v. and s.c. administration to rats. Particulars: male, Sprague Dawley, rat, in vivo. How it is done:
In order to assess the i.v. and s.c. PK/PD profile of CNP compounds of the present invention, formulations of CNP compounds were administered to rats, blood samples taken and exposure and cGMP response measured.
Quantitative plasma analysis of CNP-compounds: Plasma concentrations of CNP compounds were assayed by plasma protein precipitation and analysed by turboflow liquid chromatography mass spectrometry (TF-LC-MS). Calibrators were prepared by spiking either blank rat or minipig plasma with the relevant CNP compound in the range from 0.5 to 2000 nM. Calibrators, plasma blanks or study samples were prepared for TF-LC-MS by protein precipitation by adding three or four volumes of either ethanol or methanol containing 20 nM of internal standard to one volume of sample. For some compounds, formic acid was added to the precipitation reagent (the final concentration was 1% v/v). After the addition of the precipitation reagent, the mixture was centrifuged at 6200 rpm at 4° C. for 30 minutes. After centrifugation, one volume of supernatant was mixed with two volumes of water (with 1% v/v formic acid). The mixture was analysed by TF-LC-MS using a Cyclone turboflow column (0.5×50 mm, ThermoFisher Scientific) and either a XBridge Protein BEH C4 3.5 μm 300 Åor a XBridge Protein BEH C18 3.5 μm 130 Åanalytical column (both were 50×2.1 mm and obtained from Waters). […] The mass spectrometer was operated in positive ionisation mode. A TSQ Altis mass spectrometer (ThermoFisher Scientific) was used as detector in selected reaction monitoring mode (specific transition were optimised for each CNP compound). Linear calibration curves (weighed 1/×2) were used for calculating the concentration in the plasma samples. Quality control samples were included. The deviation between nominal and calculated concentration in the calibrators and quality control samples were below 15%.
Animals and dosing: Groups of 4-6 rats (male, Sprague Dawley, 350 g at arrival, Janvier, France) per compound and route of administration were dosed with a CNP compound formulated either in A) 8 mM sodium phosphate, 250 mM glycerol, 0.007% polysorbate 20, pH 7.4 or B) 5 mM sodium acetate, 250 mM glycerol, 0.007% polysorbate 20, pH 4.0 depending on the respective compound. S.c. dose was 300 nmol/kg, at a concentration of […] resulting in a dosing volume of 0.3 mL/kg, whereas i.v. dose was 100 nmol/kg, at a concentration of […] resulting in a dosing volume of 1 mL/kg.
Sampling: Sublingual blood samples of 250 uL were collected from unanaesthetised rats in EDTA-coated vials (Microvette 600K3E ref #15.1673.100 Sarstedt) at baseline (-1 h before dosing) as well as 5 min (only i.v. dosed groups), 2 h, 6 h, 24 h, 48 h and 72 h (only for exposure analysis) post-dosing. The blood samples were quickly stored on ice and centrifuged (4° C., 8000 RPM, 5 min) within 10 min of collection. Plasma samples of 50 μL were transferred to each micronic tube for either exposure or cGMP analysis, kept on dry ice and stored in a freezer (−20° C.). Rats had access to food (Altromin) and tap water ad libitum.
Analysis: PK parameters were calculated by non-compartment analysis (NCA) using software Phoenix WinNonlin (ver. 8.1 or later, Certara) for each animal. Clearance (Cl) was calculated as: Dose/AUCinf (linear up, log down). […] Bioavailability was calculated as dose normalized AUC's: (AUC(sc)/Dose(sc))/(AUC(iv)/Dose(iv)). Values in the table are means from individual animals (n=4-6 individual animals). The subsequent plots for cGMP plasma concentration versus time are (Y-axis) mean cGMP concentration (n=4-6 individual animals) after IV dosing and (X-axis) nominal plasma sampling time.
Plasma cGMP are reported as the mean.

Setting [1] is: iv, i.v., about 100 nmol/kg, read-out: Cl (L/hr/kg), i.v. administration (converted).
Setting [2] is: iv, i.v., about 100 nmol/kg, read-out: T½ (hr), i.v. administration (converted).
Where [3] appears, read: sc, s.c. bioavailability, about 300 nmol/kg, read-out: F (%), s.c. administration.
Where [4] appears, read: sc, s.c., about 300 nmol/kg, read-out: T½ (hr), s.c. administration (converted).

The structures appear in SMILES notation. Like-named read-outs stand apart in the source and are kept apart here. Starred links: 1 amine or outer side, 2 acyl side, 3 side chain; linkers in the order of their positions; H or OH if unused. Positions of bridges follow the written chain, without caps; N, C: chain ends. Residues, ends and D or L forms follow the SMILES beside them. *: point of attachment. C18 diacid = O=C(O)CCCCCCCCCCCCCCCCC(=O)*; γGlu = O=C(O)[C@H](CCC(=O)[*:2])N[*:1]; AEEA = NCCOCCOCC(=O)O

`CC[C@H](C)[C@@H]1NC(=O)[C@H](CCCNC(=N)N)NC(=O)[C@H](CCC(=O)O)NC(=O)[C@H](CC(C)C)NC(=O)[C@H](CCCCN)NC(=O)[C@H](CC(C)C)NC(=O)CNC(=O)[C@H](Cc2ccccc2)NC(=O)[C@@H](NC(=O)CNC(=O)[C@H](CCCCN)NC(=O)[C@H](CO)NC(=O)[C@H](CC(C)C)NC(=O)CNC(=O)[C@H](CCCCN)NC(=O)[C@H](CCCCN)NC(=O)[C@H](CCC(N)=O)NC(=O)[C@H](C)NC(=O)CNC(=O)[C@H](CCCCN)NC(=O)[C@H](Cc2ccc(O)cc2)NC(=O)[C@H](CCCCN)NC(=O)[C@H](CCCNC(=N)N)NC(=O)[C@H](C)NC(=O)COCCOCCNC(=O)COCCOCCNC(=O)CC[C@H](NC(=O)CCCCCCCCCCCCCCCCC(=O)O)C(=O)O)CSSC[C@@H](C(=O)O)NC(=O)CNC(=O)[C@H](CC(C)C)NC(=O)CNC(=O)[C@H](CO)NC(=O)[C@H](CC(C)C)NC(=O)[C@H](CO)NC(=O)CNC1=O` [compound 0776] ({C18 diacid-γGlu-AEEA-AEEA}-ARKYKGAQKKGLSKGCFGLKLERIGSLSGLGC-OH; disulfide 16-32): under “iv, 100 nmol/kg”, the clearance is 0.00613 L/h/kg and the half-life was 10.7 h. For the setting “sc, 300 nmol/kg”, this compound gave a bioavailability of 7.35% and a half-life of 5.63 h.
As for `CC[C@H](C)[C@@H]1NC(=O)[C@H](CCCNC(=N)N)NC(=O)[C@H](CC(=O)O)NC(=O)[C@H](CC(C)C)NC(=O)[C@@H]2CCCN2C(=O)[C@H](CC(C)C)NC(=O)CNC(=O)[C@H](Cc2ccccc2)NC(=O)[C@@H](NC(=O)CNC(=O)[C@H](CCCCN)NC(=O)[C@H](CO)NC(=O)[C@H](CC(C)C)NC(=O)CNC(=O)[C@H](CCCCN)NC(=O)[C@H](CCCCN)NC(=O)[C@H](CCC(N)=O)NC(=O)[C@H](C)NC(=O)CNC(=O)[C@H](CCC(=O)O)NC(=O)[C@H](Cc2ccc(O)cc2)NC(=O)COCCOCCNC(=O)COCCOCCNC(=O)CC[C@H](NC(=O)CCCCCCCCCCCCCCCCC(=O)O)C(=O)O)CSSC[C@@H](C(=O)O)NC(=O)CNC(=O)[C@H](CC(C)C)NC(=O)CNC(=O)[C@H](CO)NC(=O)[C@H](CC(C)C)NC(=O)[C@H](CO)NC(=O)CNC1=O` [compound 1225] ({C18 diacid-γGlu-AEEA-AEEA}-YEGAQKKGLSKGCFGLPLDRIGSLSGLGC-OH; disulfide 13-29), the clearance under setting [1] is 0.0103 L/h/kg. For the same compound, the half-life is 5.03 h under setting [2] and 5.1 h under setting [4]. Also, under setting [3], the bioavailability came to 61.2%.
As to `CC[C@H](C)[C@@H]1NC(=O)[C@H](CCCNC(=N)N)NC(=O)[C@H](CC(=O)O)NC(=O)[C@H](CC(C)C)NC(=O)[C@@H]2CCCN2C(=O)[C@H](CC(C)C)NC(=O)CNC(=O)[C@H](Cc2ccccc2)NC(=O)[C@@H](NC(=O)CNC(=O)[C@H](CO)NC(=O)[C@H](CO)NC(=O)[C@H](CC(C)C)NC(=O)CNC(=O)[C@H](CCCCN)NC(=O)[C@H](CCCCN)NC(=O)[C@H](CCC(N)=O)NC(=O)[C@H](C)NC(=O)CNC(=O)[C@H](CCC(=O)O)NC(=O)[C@H](Cc2ccc(O)cc2)NC(=O)COCCOCCNC(=O)COCCOCCNC(=O)CC[C@H](NC(=O)CCCCCCCCCCCCCCCCC(=O)O)C(=O)O)CSSC[C@@H](C(=O)O)NC(=O)CNC(=O)[C@H](CC(C)C)NC(=O)CNC(=O)[C@H](CO)NC(=O)[C@H](CC(C)C)NC(=O)[C@H](CO)NC(=O)CNC1=O` [compound 1227] ({C18 diacid-γGlu-AEEA-AEEA}-YEGAQKKGLSSGCFGLPLDRIGSLSGLGC-OH; disulfide 13-29), the clearance under setting [1] is 0.0168 L/h/kg. Also, the half-life under setting [2] is 3.56 h.
As for `CC[C@H](C)[C@@H]1NC(=O)[C@H](CCCNC(=N)N)NC(=O)[C@H](CC(=O)O)NC(=O)[C@H](CC(C)C)NC(=O)[C@@H]2CCCN2C(=O)[C@H](CC(C)C)NC(=O)CNC(=O)[C@H](Cc2ccccc2)NC(=O)[C@@H](NC(=O)CNC(=O)[C@H](CO)NC(=O)[C@H](CO)NC(=O)[C@H](CC(C)C)NC(=O)CNC(=O)[C@H](CCCCN)NC(=O)[C@H](CCCCN)NC(=O)[C@H](CCC(N)=O)NC(=O)[C@H](C)NC(=O)CNC(=O)[C@H](CCCCN)NC(=O)[C@H](Cc2ccc(O)cc2)NC(=O)COCCOCCNC(=O)COCCOCCNC(=O)CC[C@H](NC(=O)CCCCCCCCCCCCCCCCC(=O)O)C(=O)O)CSSC[C@@H](C(=O)O)NC(=O)CNC(=O)[C@H](CC(C)C)NC(=O)CNC(=O)[C@H](CO)NC(=O)[C@H](CC(C)C)NC(=O)[C@H](CO)NC(=O)CNC1=O` [compound 1233] ({C18 diacid-γGlu-AEEA-AEEA}-YKGAQKKGLSSGCFGLPLDRIGSLSGLGC-OH; disulfide 13-29), under setting [1], the clearance was 0.0246 L/h/kg. The half-life by setting is: under setting [2], 1.42 h; under setting [4], 3.57 h. In addition, the bioavailability under setting [3] is 33.8%.
For the setting “iv, 100 nmol/kg”, `CC[C@H](C)[C@@H]1NC(=O)[C@H](CCCNC(=N)N)NC(=O)[C@H](CC(=O)O)NC(=O)[C@H](CC(C)C)NC(=O)[C@H](CCCCN)NC(=O)[C@H](CC(C)C)NC(=O)CNC(=O)[C@H](Cc2ccccc2)NC(=O)[C@@H](NC(=O)CNC(=O)[C@H](CCCCN)NC(=O)[C@H](CO)NC(=O)[C@H](CC(C)C)NC(=O)CNC(=O)[C@H](CCCCN)NC(=O)[C@H](CCCCN)NC(=O)[C@H](CCC(N)=O)NC(=O)[C@H](C)NC(=O)CNC(=O)[C@H](Cc2c[nH]cn2)NC(=O)[C@H](CCC(=O)O)NC(=O)COCCOCCNC(=O)COCCOCCNC(=O)CC[C@H](NC(=O)CCCCCCCCCCCCCCCCC(=O)O)C(=O)O)CSSC[C@@H](C(=O)O)NC(=O)CNC(=O)[C@H](CC(C)C)NC(=O)CNC(=O)[C@H](CO)NC(=O)[C@H](CC(C)C)NC(=O)[C@H](CO)NC(=O)CNC1=O` [compound 1235] gave a clearance of 0.0115 L/h/kg and a half-life of 6.2 h. Further, for the setting “sc, 300 nmol/kg”, the bioavailability was found to be 65.8% and the half-life was 6.28 h.
With `CC[C@H](C)[C@@H]1NC(=O)[C@H](CCCNC(=N)N)NC(=O)[C@H](CC(=O)O)NC(=O)[C@H](CC(C)C)NC(=O)[C@@H]2CCCN2C(=O)[C@H](CC(C)C)NC(=O)CNC(=O)[C@H](Cc2ccccc2)NC(=O)[C@@H](NC(=O)CNC(=O)[C@H](CO)NC(=O)[C@H](CO)NC(=O)[C@H](CC(C)C)NC(=O)CNC(=O)[C@H](CCCCN)NC(=O)[C@H](CCCCN)NC(=O)[C@H](CCC(N)=O)NC(=O)[C@H](C)NC(=O)CNC(=O)[C@H](Cc2c[nH]cn2)NC(=O)[C@H](Cc2ccc(O)cc2)NC(=O)COCCOCCNC(=O)COCCOCCNC(=O)CC[C@H](NC(=O)CCCCCCCCCCCCCCCCC(=O)O)C(=O)O)CSSC[C@@H](C(=O)O)NC(=O)CNC(=O)[C@H](CC(C)C)NC(=O)CNC(=O)[C@H](CO)NC(=O)[C@H](CC(C)C)NC(=O)[C@H](CO)NC(=O)CNC1=O` [compound 1241] ({C18 diacid-γGlu-AEEA-AEEA}-YHGAQKKGLSSGCFGLPLDRIGSLSGLGC-OH; disulfide 13-29), under setting [1], the clearance was 0.0164 L/h/kg. In addition, under setting [2], the half-life was 2.78 h.
